Experimental data: paper PMC8744338, “Luteolin increases susceptibility to macrolides by inhibiting MsrA efflux pump in Trueperella pyogenes” (Veterinary Research, 2022)

Biological target: T1, MsrA efflux pump (His-MsrA) (Staphylococcus epidermidis, UniProt P23212)
T1 construct: macrolide ABC-F MsrA of staphylococcal type, not methionine sulfoxide reductase
Assay: surface plasmon resonance (Biacore T200, His-MsrA captured on NTA chip)
Format: binding
Conditions: PBS-P running buffer; luteolin 12.5-400 μM

T1 sequence (P23212 whole entry): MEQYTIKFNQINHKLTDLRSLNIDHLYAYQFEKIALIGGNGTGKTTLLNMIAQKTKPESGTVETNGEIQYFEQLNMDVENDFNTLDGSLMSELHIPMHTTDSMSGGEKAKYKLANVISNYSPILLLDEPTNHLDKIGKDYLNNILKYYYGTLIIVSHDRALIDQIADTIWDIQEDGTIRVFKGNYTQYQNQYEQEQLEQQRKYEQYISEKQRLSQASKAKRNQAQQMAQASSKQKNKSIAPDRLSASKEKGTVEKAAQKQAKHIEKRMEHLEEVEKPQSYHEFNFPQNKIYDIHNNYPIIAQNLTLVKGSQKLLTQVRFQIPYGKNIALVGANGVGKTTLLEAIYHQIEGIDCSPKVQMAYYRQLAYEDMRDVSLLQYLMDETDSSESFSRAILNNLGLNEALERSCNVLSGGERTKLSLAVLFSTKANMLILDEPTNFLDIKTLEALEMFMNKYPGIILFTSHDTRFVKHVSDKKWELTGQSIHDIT

**Q.** With `O=c1cc(-c2ccc(O)c(O)c2)oc2cc(O)cc(O)c12` [luteolin] as the molecule, how does the Kd read?
**A.** 64.6 µM
